According to ChEMBL document CHEMBL4422646, “Synthesis and biological evaluation of 3-amino-, 3-alkoxy- and 3-aryloxy-6-(hetero)arylpyridazines as potent antitumor agents” (Bioorg Med Chem Lett, 2019):

Key:
MDA-MB-231 = assay: Antiproliferative activity against human MDA-MB-231 cells after 48 hrs by Hoechst 33342 staining-based assay; type: functional, cell-based; details: MDA-MB-231, 48 h
HCT-116 = assay: Antiproliferative activity against human HCT116 cells after 48 hrs by Hoechst 33342 staining-based assay; type: functional, cell-based; details: HCT-116, 48 h
Fibroblast = assay: Antiproliferative activity against human fibroblast cells after 48 hrs by Hoechst 33342 staining-based assay; type: cell-based
PC-3 = assay: Antiproliferative activity against human PC3 cells after 48 hrs by Hoechst 33342 staining-based assay; type: functional, cell-based; details: PC-3, 48 h
Caco-2 = assay: Antiproliferative activity against human Caco2 cells after 48 hrs by Hoechst 33342 staining-based assay; type: functional, cell-based; details: Caco-2, 48 h
Huh-7 = assay: Antiproliferative activity against human HuH7 cells after 48 hrs by Hoechst 33342 staining-based assay; type: functional, cell-based; details: Huh-7, 48 h
NCI-H727 = assay: Antiproliferative activity against human NCI-H727 cells after 48 hrs by Hoechst 33342 staining-based assay; type: functional, cell-based; details: NCI-H727, 48 h
HaCaT = assay: Antiproliferative activity against human HaCaT cells after 48 hrs by Hoechst 33342 staining-based assay; type: cell-based

Measured: IC50

FC(F)(F)c1cccc(-c2ccc(N3CCOCC3)nn2)c1
> 25 µM: MDA-MB-231 | HCT-116 | Fibroblast | PC-3 | Caco-2 | Huh-7 | NCI-H727 | HaCaT

c1ccc2nc(-c3ccc(N4CCOCC4)nn3)ccc2c1
> 25 µM: MDA-MB-231 | HCT-116 | Fibroblast | PC-3 | Caco-2 | Huh-7 | NCI-H727 | HaCaT

CCN(CC)c1ccc(-c2ccc(C#N)cc2)nn1
> 25 µM: MDA-MB-231 | HCT-116 | Fibroblast | PC-3 | Caco-2 | Huh-7 | NCI-H727 | HaCaT

FC(F)(F)c1cccc(-c2ccc(Oc3ccccc3)nn2)c1
> 25 µM: MDA-MB-231 | HCT-116 | Fibroblast | PC-3 | Caco-2 | Huh-7 | NCI-H727 | HaCaT

CCCCOc1ccc(-c2ccc(C(=O)OCC)cc2)nn1
> 25 µM: MDA-MB-231 | HCT-116 | Fibroblast | PC-3 | Caco-2 | Huh-7 | NCI-H727 | HaCaT

CCN(CC)c1ccc(-c2cccc(Cl)c2)nn1
> 25 µM: MDA-MB-231 | HCT-116 | Fibroblast | PC-3 | Caco-2 | Huh-7 | NCI-H727 | HaCaT

CCN(CC)c1ccc(-c2cccc(C#N)c2)nn1
> 25 µM: MDA-MB-231 | HCT-116 | Fibroblast | PC-3 | Caco-2 | Huh-7 | NCI-H727 | HaCaT

COc1ccc(-c2ccc(Oc3ccccc3)nn2)cc1
> 25 µM: MDA-MB-231 | HCT-116 | Fibroblast | PC-3 | Caco-2 | Huh-7 | NCI-H727 | HaCaT

c1ccc(Oc2ccc(-c3ccsc3)nn2)cc1
> 25 µM: MDA-MB-231 | HCT-116 | Fibroblast | PC-3 | Caco-2 | Huh-7 | NCI-H727 | HaCaT

CCOC(=O)c1ccc(-c2ccc(N3CCOCC3)nn2)cc1
> 25 µM: MDA-MB-231 | HCT-116 | Fibroblast | PC-3 | Caco-2 | Huh-7 | NCI-H727 | HaCaT

CCCCOc1ccc(-c2cccc(C#N)c2)nn1
> 25 µM: MDA-MB-231 | HCT-116 | Fibroblast | PC-3 | Caco-2 | Huh-7 | NCI-H727 | HaCaT

COc1ccc(-c2ccc(N3CCOCC3)nn2)cc1
> 25 µM: MDA-MB-231 | HCT-116 | Fibroblast | PC-3 | Caco-2 | Huh-7 | NCI-H727 | HaCaT

CCN(CC)c1ccc(-c2cccc(C(F)(F)F)c2)nn1
> 25 µM: MDA-MB-231 | HCT-116 | Fibroblast | PC-3 | Caco-2 | Huh-7 | NCI-H727 | HaCaT

CCOC(=O)c1cccc(-c2ccc(N3CCOCC3)nn2)c1
> 25 µM: MDA-MB-231 | HCT-116 | Fibroblast | PC-3 | Caco-2 | Huh-7 | NCI-H727 | HaCaT

CCN(CC)c1ccc(-c2ccc(C(=O)O)cc2)nn1
> 25 µM: MDA-MB-231 | HCT-116 | Fibroblast | PC-3 | Caco-2 | Huh-7 | NCI-H727 | HaCaT

CCOC(=O)c1ccccc1-c1ccc(N2CCOCC2)nn1
> 25 µM: MDA-MB-231 | HCT-116 | Fibroblast | PC-3 | Caco-2 | Huh-7 | NCI-H727 | HaCaT

CCOC(=O)c1ccc(-c2ccc(OCC)nn2)cc1
> 25 µM: MDA-MB-231 | HCT-116 | Fibroblast | PC-3 | Caco-2 | Huh-7 | NCI-H727 | HaCaT

Fc1ccc(-c2ccc(N3CCOCC3)nn2)cc1
> 25 µM: MDA-MB-231 | HCT-116 | Fibroblast | PC-3 | Caco-2 | Huh-7 | NCI-H727 | HaCaT

CC(=O)c1cccc(-c2ccc(OCc3ccccc3)nn2)c1
> 25 µM: MDA-MB-231 | HCT-116 | Fibroblast | PC-3 | Caco-2 | Huh-7 | NCI-H727 | HaCaT

Cc1cccc(-c2ccc(N3CCOCC3)nn2)c1
> 25 µM: MDA-MB-231 | HCT-116 | Fibroblast | PC-3 | Caco-2 | Huh-7 | NCI-H727 | HaCaT

c1cc(-c2ccc(N3CCOCC3)nn2)cs1
> 25 µM: MDA-MB-231 | HCT-116 | Fibroblast | PC-3 | Caco-2 | Huh-7 | NCI-H727 | HaCaT
